According to ChEMBL document CHEMBL2046443, “Desmethyl Macrolides: Synthesis and Evaluation of 4,10-Didesmethyl Telithromycin” (2012):
Values after ≈ are worked out from the molar mass of the structure shown.

Experiments:
Assay type in all cases: functional
Escherichia coli [1] = test: Antibacterial activity against wild type Escherichia coli DK/pKK3535
Escherichia coli [2] = test: Antibacterial activity against Escherichia coli SQ171 harboring 23S rRNA A2058G mutant
Escherichia coli [3] = test: Antibacterial activity against Escherichia coli DK harboring 23S rRNA A2058G mutant
Staphylococcus aureus [4] = test: Antibacterial activity against Staphylococcus aureus UCN14 harboring 23S rRNA A2058T mutant
Staphylococcus aureus [5] = test: Antibacterial activity against Staphylococcus aureus ATCC 33591 harboring ermA gene

| SMILES | MIC (Escherichia coli [1]) [µg/mL] | MIC (Escherichia coli [2]) [µg/mL] | MIC (Escherichia coli [3]) [µg/mL] | MIC (Staphylococcus aureus [4]) [µg/mL] | MIC (Staphylococcus aureus [5]) [µg/mL] |
| --- | --- | --- | --- | --- | --- |
| CC[C@H]1OC(=O)[C@H](C)C(=O)C[C@@H](O[C@@H]2O[C@H](C)C[C@H](N(C)C)[C@H]2O)[C@@](C)(OC)CCC(=O)C[C@@H]2N(CCCCn3cnc(-c4cccnc4)c3)C(=O)O[C@@]21C | 32 (≈ 41.6 µM) | – | – | – | – |
| CC[C@H]1OC(=O)[C@H](C)C(=O)C[C@@H](O[C@@H]2O[C@H](C)C[C@H](N(C)C)[C@H]2O)[C@](C)(OC)C[C@@H](C)C(=O)C[C@H]2N(CCCCn3cnc(-c4cccnc4)c3)C(=O)O[C@]12C | 8 (≈ 10.2 µM) | > 512 | 16 (≈ 20.4 µM) | > 256 | > 128 |
| CC[C@H]1OC(=O)[C@H](C)C(=O)[C@H](C)[C@@H](O[C@@H]2O[C@H](C)C[C@H](N(C)C)[C@H]2O)[C@](C)(OC)C[C@@H](C)C(=O)[C@H](C)[C@H]2N(CCCCn3cnc(-c4cccnc4)c3)C(=O)O[C@]12C [TELITHROMYCIN] | 0.5 (≈ 0.616 µM) | > 512 | 1 (≈ 1.23 µM) | > 128 | > 128 |
